Results as given in PubChem BioAssay AID179 (DTP/NCI, 2004).
Values joined by “and” are separate entries in the source; they are usually repeats but may differ in a detail not shown here. Identical values can stand only once. Active and inactive are the calls of the source.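 How the source made its calls: active means compounds giving half or more protection of infected cells from virus-caused growth loss, again on retest; inactive means the rest.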

System: CEM cells HIV-1 protection, formazan growth assay
Test: NCI AIDS Antiviral Assay
Details: for IC50: measured here: growth of uninfected CEM cells
Procedure, shortened: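 CEM (human) cells, HIV-1 infected vs uninfected, 5-point dosing, formazan growth read-out. Retest threshold 50% protection.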

SMILES | outcome | EC50 [µM] | IC50
CCc1ccccc1-n1c2nc(=O)n(C)c(=O)c-2nc2ccccc21 | inactive |  | 
OC[C@@H]1C(O)[C@H](O)[C@H]2C(O)CCN12 (stereo partly drawn) |  | > 1320 | > 1320 µM
Cc1ccc(NC(=O)CCC(=O)C2Cc3ccccc3C2=O)cc1C (stereo not drawn) |  | > 741 | 724 µM
COc1ccc(/C(C)=N/NC(N)=S)cc1OC | inactive |  | 
CC1(C(=O)O)OC12CCCCC2 (stereo not drawn) |  | > 200 | > 200 µM
COC1C(OC(=O)/C=C/C=C/C=C/C=C\C(=O)O)CCC2(CO2)C1C1(C)OC1CC=C(C)C (stereo not drawn) |  | 49 | > 200 µM
CCN(CC)c1ccc(Cl)c2c1C(O)(C(C)C)C2(C)C (stereo not drawn) |  | > 200 | 58.9 µM
O=C(N=Nc1ccccc1Br)NNc1ccccc1Br |  | > 200 | > 100 µM
COc1ccc(/C(C#N)=C/c2ccc(OC)c(OC)c2)cc1 |  | > 200 | 64.6 µM and > 33.9 µM
COc1ccc2nc3ccc(OC)cc3c(SCC3CO3)c2c1 (stereo not drawn) |  | > 200 | 3.63 µM
O=C(O)CC(NC(=O)/C(=C/c1ccccc1O)NC(=O)c1ccccc1)C(=O)O (stereo not drawn) |  | > 200 | 110 µM
CC(C)(C)C(=O)/C=C/c1ccccc1F |  | > 49 | > 49 µM
CC(=O)NC1Cc2ccccc2C1=O (stereo not drawn) |  | > 200 | > 200 µM
CCC1(CC)C(=O)N(C(=O)c2ccc(C)cc2)N(C(=O)c2ccc(C)cc2)C1=O |  | > 200 | 20.4 µM
O=C(NC(=Nc1ccccc1)SCSC(=Nc1ccccc1)NC(=O)c1ccco1)c1ccco1 |  | > 14.5 | > 14.5 µM
CC(CC(=O)N1C(=O)C(C)(C)[C@@H](O)[C@H]1CC(C)C(Cl)(Cl)Cl)C(Cl)(Cl)Cl (stereo partly drawn) | inactive |  | 
O=C(NP(=O)(N1CC1)N1CC1)c1cc(I)ccc1I |  | > 200 | 3.98 µM
CCCOc1ccc2[nH]cc(C(COC)c3c[nH]c4ccc(OCCC)cc34)c2c1 |  | > 200 | 12.9 µM
CCCCc1cc(=O)oc2c3c(c4c(c12)OC(C)(C)CC4)O[C@@H](C)[C@H](C)[C@@H]3O |  | 2.69 | 10.5 µM
Cc1ccc2c(c1)NC(=S)N=S2(C)=O (stereo not drawn) |  | > 158 | 93.3 µM
Nc1nc2n(nc[n+]2CCP(=O)(O)O)c(=O)[nH]1 | inactive |  | 
CCOC(=O)/C(=C\c1ccc(Br)cc1)C(C)=O |  | > 120 | 70.8 µM

SMILES | outcome | EC50 [µM] | IC50
O=C1OCC(Cl)O1 (stereo not drawn) |  | > 200 | > 200 µM
O=C(CC/C(CC(=O)c1ccc(Br)cc1)=N\O)Nc1ccc(Cl)c(Cl)c1 |  | > 79.4 | 16.2 µM
[N-]=[N+]=Nc1ccc(CNc2cc(=O)[nH]c(=O)[nH]2)cc1 |  | > 200 | > 200 µM
O=c1[nH][nH]c2c1SCc1ccccc1-2 |  | > 955 | 468 µM
CCOc1ccc(NC(=O)C(=O)Nn2c(N)nnc2N)cc1 |  | > 61.7 | > 61.7 µM
N#Cc1nc(-c2ccccn2)oc1N |  | > 200 | > 200 µM
c1ccc(-c2cn3nc4ccccc4c3nn2)cc1 |  | > 200 | > 200 µM
Cn1c(=O)[nH]n(-c2ccc3ccccc3c2)c1=O |  | > 200 | > 200 µM
O=c1[nH]c2ccc(C(F)(F)F)cc2nc1Cc1ccccc1 |  | > 200 | 74.1 µM
CN(C)c1ccc(/C=C(\NC(=O)c2ccccc2)C(=O)NCC(=O)O)cc1 |  | > 100 | > 100 µM
CCCc1cc(=O)oc2c3c(c4c(c12)OC(C)(C)[C@H](OC(=O)c1ccc(Br)cc1)[C@@H]4OC(=O)c1ccc(Br)cc1)O[C@@H](C)[C@H](C)[C@@H]3OC(=O)c1ccc(Br)cc1 |  | > 200 | > 200 µM
COc1ccc(OC)c(CNc2ccc(C(=O)O)cc2)c1 |  | > 200 | > 200 µM
CNNC1=NS(=O)(=O)c2cc(C)c(Cl)cc2S1 |  | > 200 | > 200 µM
Cc1ccc([N+](=O)[O-])cc1NC(=O)C(=O)Cc1cc(=O)oc2cc(O)ccc12 |  | > 468 | 363 µM
CCCCNC(=O)OCCN=c1c2ccccc2ccc2ccccc12 |  | > 200 | > 200 µM
CC(=O)C1=CCC2c3[nH]c4ccccc4c3CCN2C1 (stereo not drawn) |  | > 70.8 | > 70.8 µM
O=C(Nc1ccc(C2=NCCN2)cc1)c1cncc(C(=O)Nc2ccc(C3=NCCN3)cc2)c1 |  | 9.77 | 132 µM
CN(C)S(=O)(=O)N1C(=O)c2ccccc2C1=O |  | > 102 | > 102 µM
COc1cc(C2=C(C)[C@@H]3CN(CC=C3c3ccc(Cl)cc3)C2)c(S(=O)(=O)O)cc1OC | inactive |  | 
CCC(=O)c1ccc2[nH]c3c(C)c4c(=O)cc(C)[nH]c4c(C)c3c2c1 |  | > 100 | > 100 µM
CCN1CCC(O)(/C=C/c2ccc(C)cc2)C(C(=O)/C=C/c2ccc(C)cc2)C1 (stereo not drawn) |  | > 117 | 2.57 µM
O=C1C=C2C[C@H]3C(O)C[C@]2(O1)[C@H]1CCCN31 (stereo partly drawn) |  | > 112 | > 112 µM

SMILES | outcome | EC50 [µM] | IC50
O=[As](O)(O)c1cccc(F)c1 |  | > 200 | 107 µM
N#CC(C#N)=c1[nH]c2cccc3c2-c2c(cccc2c3=C(C#N)C#N)[nH]1 | inactive |  | 
OC(C1CO1)C(O)C1CO1 (stereo not drawn) |  | > 427 | 0.891 µM
Cc1c(Cl)cccc1Nc1ncccc1C(=O)OCC(O)CO (stereo not drawn) |  | > 200 | 91.2 µM
CCN(CC)C(=O)N[C@@H](Cc1ccccc1)C(=O)NC |  | > 200 | > 200 µM
COc1cc(C(SCc2ccccc2)SCc2ccccc2)ccc1O |  | > 200 | 34.7 µM
COc1cccc(C=O)c1[O-].[O]=[U](=[O])([OH2+])[OH2+] |  | > 79.4 | 39.8 µM
COC(=O)c1cc(C(=CCCCCO)c2cc(Cl)c(OC)c(C(=O)OC)c2)cc(Cl)c1OC |  | > 200 | 23.4 µM
CN(C)CCC(=O)CCN(C)C |  | > 1020 | 186 µM
COc1cc(C(=O)O)c(C(=O)c2ccc(C#N)cc2)cc1OC |  | > 200 | > 200 µM
O=C(NC(=O)c1ccccc1[N+](=O)[O-])Nc1ccc(Oc2ncc(Cl)cn2)c(C(F)(F)F)c1 | inactive |  | 
Cc1ccc(C)c(N2C(=O)C(=O)C(c3nc4ccccc4s3)/C(=N/N)C2=O)c1 (stereo not drawn) |  | > 50.1 | > 50.1 µM
Cc1ccc(C(=O)c2cccc(C)c2C(=O)O)c(C)c1 |  | > 200 | > 200 µM
CCCCCCCCCCCCCCCc1cc(=O)c2c(O)cc(O)cc2o1 | inactive |  | 
O=C(O)C(CS(=O)(=O)O)Nc1ccc([N+](=O)[O-])cc1[N+](=O)[O-] (stereo not drawn) |  | > 692 | > 692 µM
O=C1[C@@H]2C(c3ccccc3Br)=NO[C@@H]2C(=O)N1c1ccc(Cc2ccc(N3C(=O)[C@H]4C(c5ccccc5Br)=NO[C@H]4C3=O)cc2)cc1 |  | > 9.55 | > 9.55 µM
Cc1c2ccncc2cc2c1sc1ccncc12 |  | > 39.8 | 0.589 µM
Cn1c(=O)c(-c2ccccc2)c(N=[N+]=[N-])c2ccccc21 |  | > 200 | 135 µM
Cc1cn(C2CC(N=[N+]=[N-])C(CO)O2)c(=O)nc1N (stereo not drawn) |  | > 200 | > 200 µM
C[C@]12c3c4cc(NC(=O)C(=O)NCc5ccc(-c6ccccn6)nc5)cc3Oc3cc(NC(=O)C(=O)NCc5ccc(-c6ccccn6)nc5)cc(c31)OC1C=C(NC(=O)C(=O)NCc3ccc(-c5ccccn5)nc3)C=C(O4)C12 (stereo partly drawn) |  | > 100 | 21.4 µM
Cc1c(O)c(OC2OC(CO)C(O)C(O)C2O)cc2c1CC[C@@H]1C2(C)C(=O)C[C@]2(C)[C@@H]([C@@](C)(O)C(O)CCC(C)(C)O)[C@H](O)C[C@@]12C (stereo partly drawn) |  | > 200 | > 200 µM
O=[N+]([O-])c1ccccc1Oc1ccccc1 |  | 55 | 87.1 µM

SMILES | outcome | EC50 [µM] | IC50
CC(=O)c1cccc(NC(=O)/C(=N\NC(C)(C)C)c2c(O)c3ccccc3oc2=O)c1 |  | > 589 | 257 µM
C[N+](C)(CCCCCC[N+](C)(C)C1c2ccccc2-c2ccccc21)C1c2ccccc2-c2ccccc21 |  | > 200 | 182 µM
COc1ccc(/C=C2\CCCc3ccccc3C2=O)cc1 |  | > 200 | 0.145 µM
CC(CC(=O)O)CC(=O)OC[C@]12CC[C@@H](C(C)C)[C@@H]1[C@H]1CC[C@@H]3[C@@]4(C)CC[C@H](OC(=O)CC(C)CC(=O)O)C(C)(C)[C@@H]4CC[C@@]3(C)[C@]1(C)CC2 (stereo partly drawn) |  | > 200 | 16.6 µM
[CH3][Ga]([CH3])[n]1cccn1 |  | > 562 | 74.1 µM
COc1ccc(SCc2ccc(C(=O)O)cc2)cc1 |  | > 26.3 | > 26.3 µM
O=C1C2=Cc3ccccc3OC2(O)Oc2cc3ccccc3cc21 (stereo not drawn) |  | > 200 | 69.2 µM
COC(=O)[C@@H](NC1(c2ccccc2)c2ccccc2-c2ccccc21)[C@H](OC(=O)[C@H]1CCCN1S(=O)(=O)c1ccccc1)C(=O)OC |  | > 200 | 9.33 µM
N#CC1=C(N)N(c2ccccc2)C(=S)N2CCCCCCCC12 (stereo not drawn) |  | > 200 | 186 µM
CC(=O)c1cccc(NC(=O)C(=O)C(C(=O)NN)c2ccccc2)c1 (stereo not drawn) |  | > 55 | > 55 µM
CC1=NN(C(=O)c2cc(Cl)cc([N+](=O)[O-])c2)C(=O)C1N=Nc1ccccc1C(=O)O (stereo not drawn) | inactive |  | 
NNC(=O)C1C2c3ccccc3C(c3ccccc32)C1C(=O)O (stereo not drawn) |  | > 200 | > 200 µM
COc1ccc(C2Oc3ccc(Cl)cc3C=C2[N+](=O)[O-])cc1 (stereo not drawn) |  | > 200 | 0.447 µM
CCN(CC)c1ccc(NC(=S)NN)cc1 |  | > 200 | 11.2 µM
CCCCCCCCCC(=O)NC(Cc1ccc(O)cc1)C(=O)NCCCNCCCCNCCCNC(=O)[C@@H](N)CCCN=C(N)N (stereo partly drawn) |  | > 69.2 | 58.9 µM
CC(C)C1CC=NN1C(=O)OC(C)(C)C (stereo not drawn) |  | > 200 | > 200 µM
O=C(Nc1nc2ccc([N+](=O)[O-])cc2s1)C(=O)C(C(=O)c1ccccc1F)C1OC(=O)c2ccccc21 (stereo not drawn) |  | > 132 | 18.2 µM
CC1(CO)COc2ccccc2C1=O (stereo not drawn) |  | > 200 | > 200 µM
c1ccc(-c2nc3ccccc3nc2SCc2cccnc2)cc1 |  | > 7.94 | > 7.94 µM
C=CC[C@H]1O[Si](C(C)(C)C)(C(C)(C)C)[C@H](C)[C@H]1C |  | > 200 | > 200 µM
